Data taken from US9232796B2, “Herbicidal compositions comprising 4-amino-3-chloro-5-fluoro-6-(4-chloro-2-fluoro-3-methoxyphenyl) pyridine-2-carboxylic acid or a derivative thereof and acetyl-CoA carboxylase (ACCase) inhibitors” (DOW AGROSCIENCES LLC, priority 2012, dated 2016).
Several values for one entry are separate records, joined by “and”; a condition that tells them apart may be missing. Identical values can stand only once.

Assays:
SCPJU = test: Example II in-water applied, greenhouse, transplanted paddy rice weeds; assay type: in vivo, Schoenoplectus juncoides (Roxb.) Palla
Experimental: (§1) Weed seeds or nutlets of the desired test plant species were planted in puddled soil (mud) prepared by mixing a shredded, non-sterilized mineral soil (50.5 percent silt, 25.5 percent clay, and 24 percent sand, with a pH of about 7.6 and an organic matter content of about 2.9 percent) and water at a 1:1 volumetric ratio. The prepared mud was dispensed in 365 mL aliquots into 16-ounce (oz.) non-perforated plastic pots with a surface area of 86.59 square centimeters (cm^2) leaving a headspace of 3 centimeters (cm) in each pot. Mud was allowed to dry overnight prior to planting or transplanting. Rice seeds were planted in Sun Gro MetroMix® 306 planting mixture, which typically has a pH of 6.0 to 6.8 and an organic matter content of about 30 percent, in plastic plug trays. Seedlings at the second or third leaf stage of growth were transplanted into 860 mL of mud contained in 32-oz. non-perforated plastic pots with a surface area of 86.59 cm^2 4 days prior to herbicide application. The paddy was created by filling the headspace of the pots with 2.5 to 3 cm of water. […] The plants were grown for 4-22 days in a greenhouse with an approximate 14 hr. photoperiod which was maintained at about 29° C. during the day and 26° C. during the night. Nutrients were added as Osmocote® (19:6:12, N:P:K+minor nutrients) at 2 g per 16-oz. pot and 4 g per 32-oz. pot. Water was added on a regular basis to maintain the paddy flood, and supplemental lighting was provided with overhead metal halide 1000-Watt lamps as necessary. The plants were employed for testing when they reached the first through fourth true leaf stage.
(§2) Treatments consisted of the acid or esters of 4-amino-3-chloro-5-fluoro-6-(4-chloro-2-fluoro-3-methoxy-phenyl)pyridine-2-carboxylic acid (compound A) each formulated as an SC (suspension concentrate) and various herbicidal components alone and in combination.
(§3) For formulated compounds, a measured amount was placed in an individual 100 or 200 mL glass vial and was dissolved in a volume of 1.25% (v/v) Agri-Dex® crop oil concentrate to obtain application solutions.
(§4) Applications were made by injecting with a pipetter appropriate amounts of the application solutions, individually and sequentially, into the aqueous layer of the paddy. Control plants were treated in the same manner with the solvent blank. Applications were made so that all treated plant material received the same concentrations of acetone and crop oil concentrate.
(§5) The treated plants and control plants were placed in a greenhouse as described above and water was added as needed to maintain a paddy flood. After approximately 3 weeks the condition of the test plants as compared with that of the untreated plants was determined visually and scored on a scale of 0 to 100 percent where 0 corresponds to no injury or growth inhibition and 100 corresponds to complete kill.
(§6) Colby's equation was used to determine the herbicidal effects expected from the mixtures (Colby, S. R. 1967. Calculation of the synergistic and antagonistic response of herbicide combinations. Weeds 15:20-22.).
(§7) The following equation was used to calculate the expected activity of mixtures containing two active ingredients, A and B: Expected=A+B−(A×B/100)

ECHOR = test: Example V (second) postemergence foliar-applied ternary mixtures, greenhouse, direct seeded rice weeds; assay type: in vivo, Echinochloa oryzoides (Ard.) Fritsch
Experimental: Seeds or nutlets of the desired test plant species were planted in a soil matrix prepared by mixing a sandy loam or loam soil (e.g., 32 percent silt, 23 percent clay, and 45 percent sand, with a pH of about 6.5 and an organic matter content of about 1.9 percent) and calcareous grit in an 80 to 20 ratio. The soil matrix was contained in plastic pots with a volume of 1 quart and a surface area of 83.6 square centimeters (cm^2). […] The plants were grown for 8-22 days in a greenhouse with an approximate 14 hr. photoperiod which was maintained at about 29° C. during the day and 26° C. during the night. Nutrients (Peters Excel® 15-5-15 5-Ca 2-Mg and iron chelate) were applied in the irrigation solution as needed and water was added on a regular basis. Supplemental lighting was provided with overhead metal halide 1000-Watt lamps as necessary. The plants were employed for testing when they reached the first through fourth true leaf stage.
Treatments consisted of the benzyl ester of 4-amino-3-chloro-5-fluoro-6-(4-chloro-2-fluoro-3-methoxy-phenyl)pyridine-2-carboxylic acid (Compound A), formulated as an SC (suspension concentrate), an ACCase inhibitor, and a third herbicidal component, each applied alone and in ternary combination. Forms of compound A were applied on an acid equivalent basis.
For treatments comprised of formulated compounds, measured amounts of compounds were placed individually in 25 mL glass vials and diluted in a volume of 1.25% (v/v) Agri-Dex® crop oil concentrate to obtain 12× stock solutions. […] Application solutions were prepared by adding an appropriate amount of each stock solution (e.g., 1 mL) and diluted to the appropriate final concentrations with the addition of 9 mL of an aqueous mixture of 1.25% (v/v) crop oil concentrate so that the final spray solutions contained 1.25% (v/v) crop oil concentrate.
As required, additional water and/or 97:3 v/v acetone/DMSO was added to individual application solutions so that the final acetone and DMSO concentrations of the application solutions being compared were 8.1% and 0.25%, respectively.
All stock solutions and applications solutions were visually inspected for compound compatibility prior to application. Spray solutions were applied to the plant material with an overhead Mandel track sprayer equipped with a 8002E nozzles calibrated to deliver 187 L/ha over an application area of 0.503 m^2 at a spray height of 18 inches (46 cm) above average plant canopy height. Control plants were sprayed in the same manner with the solvent blank.
as §5, with “watered by sub-irrigation” for “water was added as needed”, “prevent wash-off of the test compounds.” for “maintain a paddy flood.”, “weeks,” for “weeks”
as §6
The following equation was used to calculate the expected activity of mixtures containing three active ingredients, A, B, and C: Expected=A+B+C−((A×B+A×C+B×C)/100)+(A×B×C/10000)

CYPRO = test: Example II in-water applied, greenhouse, transplanted paddy rice weeds; assay type: in vivo, Cyperus rotundus L.
Experimental: as §1, §2, §3, §4, §5, §6, §7

FIMMI = test: as above; assay type: in vivo, Fimbristylis miliacea (L.) Vahl
Experimental: as §1, §2, §3, §4, §5, §6, §7

SMILES: CCC/C(=N\OCC(C)Oc1ccc(Cl)cc1)C1=C(O)CC(C2CCCSC2)CC1=O (centres unmarked) [Profoxydim, 2-[1-[[2-(4-chlorophenoxy)propoxy]imino]butyl]-3-hydroxy-5-(tetrahydro-2H-thiopyran-3-yl)-2-cyclohexen-1-one, reference compound]
- Visual Weed Control (%) - 22 DAA SCPJU Obs (SCPJU; in-water, 50 gai/ha): 0%
- Visual Weed Control (%) - 22 DAA SCPJU Obs (SCPJU; in-water, 100 gai/ha): 0%
- Visual Weed Control (%) - 22 DAA ECHOR Obs (ECHOR; 3.12 gai/ha): 0%

SMILES: COc1c(Cl)ccc(-c2nc(C(=O)O)c(Cl)c(N)c2F)c1F [Compound A Acid, 4-amino-3-chloro-6-(4-chloro-2-fluoro-3-methoxyphenyl)-5-fluoropyridine-2-carboxylic acid]
- Visual Weed Control (%) - 25 DAA SCPJU Obs (SCPJU; 8.75 gae/ha in-water): 65%
- Visual Weed Control (%) - 25 DAA SCPJU Obs (SCPJU; 17.5 gae/ha in-water): 80%
- Visual Weed Control (%) - 25 DAA SCPJU Obs (SCPJU; 35 gae/ha in-water): 95%
- Visual Weed Control (%) - 20 DAA SCPJU Obs (SCPJU; in-water, 8.75 gae/ha): 70%
- Visual Weed Control (%) - 21 DAA SCPJU Obs (SCPJU; in-water, 8.75 gae/ha): 65%
- Visual Weed Control (%) - 22 DAA SCPJU Obs (SCPJU; in-water, 16 gae/ha): 70%
- Visual Weed Control (%) - 20 DAA SCPJU Obs (SCPJU; in-water, 17.5 gae/ha): 95%
- Visual Weed Control (%) - 21 DAA SCPJU Obs (SCPJU; in-water, 17.5 gae/ha): 90%
- Visual Weed Control (%) - 20 DAA SCPJU Obs (SCPJU; in-water, 35 gae/ha): 95%
- Visual Weed Control (%) - 21 DAA CYPRO Obs (CYPRO; 8.75 gae/ha): 0%
- Visual Weed Control (%) - 21 DAA CYPRO Obs (CYPRO; Compound A Acid 8.75 gae/ha): 0%
- Visual Weed Control (%) - 21 DAA CYPRO Obs (CYPRO; Compound A Acid 17.5 gae/ha): 30%
- Visual Weed Control (%) - 21 DAA CYPRO Obs (CYPRO; Compound A Acid 35 gae/ha): 85%
- Visual Weed Control (%) - 21 DAA FIMMI Obs (FIMMI; 8.75 gae/ha): 20%
- Visual Weed Control (%) - 21 DAA FIMMI Obs (FIMMI; 35 gae/ha): 85%

SMILES: COc1c(Cl)ccc(-c2nc(C(=O)OCc3ccccc3)c(Cl)c(N)c2F)c1F [Compound A Benzyl Ester, benzyl ester of 4-amino-3-chloro-5-fluoro-6-(4-chloro-2-fluoro-3-methoxy-phenyl)pyridine-2-carboxylic acid]
- Visual Weed Control (%) - 21 DAA SCPJU Obs (SCPJU; in-water, 4.38 gae/ha): 70%
- Visual Weed Control (%) - 22 DAA ECHOR Obs (ECHOR; 8 gae/ha): 13% and 25%
- Visual Weed Control (%)- 22 DAA ECHOR Obs (ECHOR; 8 gae/ha): 13%
- Visual Weed Control (%) - 22 DAA ECHOR Obs (ECHOR; 16 gae/ha): 35%
- Visual Weed Control (%)- 22 DAA ECHOR Obs (ECHOR; 16 gae/ha): 40%
- Visual Weed Control (%) - 20 DAA CYPRO Obs (CYPRO; 4.38 gae/ha): 50%
- Visual Weed Control (%) - 21 DAA CYPRO Obs (CYPRO; 4.38 gae/ha): 20%
- Visual Weed Control (%) - 20 DAA CYPRO Obs (CYPRO; 8.75 gae/ha): 100%
- Visual Weed Control (%) - 20 DAA CYPRO Obs (CYPRO; 17.5 gae/ha): 100%

SMILES: CCCCOC(=O)[C@@H](C)Oc1ccc(Oc2ccc(C#N)cc2F)cc1 [Cyhalofop-butyl, butyl(2R)-2-[4-(4-cyano-2-fluorophenoxy)phenoxy]propanoate, reference compound]
- Visual Weed Control (%) - 25 DAA SCPJU Obs (SCPJU; 90 gai/ha, in-water): 0%
- Visual Weed Control (%) - 25 DAA SCPJU Obs (SCPJU; 180 gai/ha, in-water): 0%
- Visual Weed Control (%)- 22 DAA ECHOR Obs (ECHOR; 17.5 gai/ha): 0%
- Visual Weed Control (%) - 22 DAA ECHOR Obs (ECHOR; 35 gai/ha): 15%
- Visual Weed Control (%)- 22 DAA ECHOR Obs (ECHOR; 35 gai/ha): 15%

SMILES: CCOC(=O)[C@@H](C)Oc1ccc(Oc2cnc3cc(Cl)ccc3n2)cc1 [Quizalofop-p-ethyl, ethyl(2R)-2-[4-[(6-chloro-2-quinoxalinyl)oxy]phenoxy]propanoate, reference compound]
- Visual Weed Control (%) - 21 DAA CYPRO Obs (CYPRO; 15 gai/ha): 0%
- Visual Weed Control (%) - 21 DAA CYPRO Obs (CYPRO; 30 gai/ha): 0%

SMILES: C[C@@H](Oc1ccc(Oc2nc3ccc(Cl)cc3o2)cc1)C(=O)N(C)c1ccccc1F [Metamifop, (2R)-2-[4-[(6-chloro-2-benzoxazolyl)oxy]phenoxy]-N-(2-fluorophenyl)-N-methylpropanamide]
- Visual Weed Control (%) - 21 DAA SCPJU Obs (SCPJU; in-water, 75 gai/ha): 0%
- Visual Weed Control (%) - 21 DAA SCPJU Obs (SCPJU; in-water, 150 gai/ha): 0%
- Visual Weed Control (%) - 21 DAA FIMMI Obs (FIMMI; 75 gai/ha): 0%
- Visual Weed Control (%) - 21 DAA FIMMI Obs (FIMMI; 150 gai/ha): 0%
